Assays:
[1] = system: aromatase activity in SK-BR-3 breast cancer cells; assay: Aromatase tritiated water-release assay in SK-BR-3 cell lines (first compound set); type: cell-based, human; details: SK-BR-3 cells; for IC50: 24 h treatment, five concentrations, each in triplicate, read-out: IC50 (μM), suppression of aromatase activity in SK-BR-3 breast cancer cells
Method: Aromatase Tritiated Water-Release Assay in SK-BR-3 Cell Lines. SK-BR-3 cells were obtained from ATCC (Rockville, Md.). Cell cultures were maintained in phenol red-free custom media (MEM, Earle's salts, 1.5× amino acids, 2× nonessential amino acids, L-glutamine, 1.5× vitamins, Gibco BRL) supplemented with 10% fetal bovine serum (FBS), 2 mM L-glutamine, and 20 mg/L gentamycin. Measurement of aromatase enzyme activity was based on the tritium water release assay. 24 Cells in 100 mm Petri dish were treated with 0.1% DMSO (control), and inhibitors at the indicated concentrations. After 24 h, the media was changed and the cells were incubated with 100 nM [1â-3H]-androst-4-ene-3,17-dione ([…]) for 3 h. Subsequently, the reaction mixture was removed, and proteins were precipitated using 10% trichloroacetic acid at 42° C. for 20 min. After a brief centrifugation, the media was extracted three times with an equal amount of chloroform to extract unused substrate and further dextran-treated charcoal. After centrifugation, a 250-μL aliquot containing the product was counted in 5 mL of liquid scintillation mixture. Results were corrected for blanks and for the cell contents of culture flasks, and results were expressed as picomoles of 3H2O formed per hour incubation time per million live cells (pmol/h/10^6 cells). To determine the amount of cells in each flask, the cells were trypsinized and analyzed using the diphenylamine DNA assay adapted to a 96-well plate. (Natarajan N.; Shambaugh, G. E., 3rd; Elseth K. M.; Haines G. K.; Radosevich J. A. Adaptation of the diphenylamine (DPA) assay to a 96-well plate tissue culture format and comparison with the MTT assay. Biotechniques 1994, 17, 166-171; incorporated herein by reference). IC50 sigmoidal dose-response data were analyzed with Microsoft Excel and the Graphpad Prism (Version 3.0) program.

[2] = system: PGE2 production in MDA-MB-231 cells; assay: Enzyme immunoassay of PGE2 in MDA-MB-231 cells (COX-2 inhibitory activity); type: cell-based, human; details: 25 μM, 24 h (FIG. 4)
Method: Enzyme Immunoassay of PGE2 in MDA-MB-231 Cells. MDA-MB-231 cells were obtained from ATCC (Rockville, Md.). Cell cultures were maintained in phenol red-free custom media (MEM, Earle's salts, 1.5× amino acids, 2× nonessential amino acids, L-glutamine, 1.5× vitamins, Gibco BRL) supplemented with 10% fetal bovine serum (FBS), 2 mM L-glutamine and 20 mg/L gentamycin. To study PGE2 synthesis in cell culture media, experiments were performed in […] Petri dishes. An aliquot of MDA-MB-231 cells (15×10^4 cells) were added to each dish and then incubated overnight to allow the cells to adhere to the dish. After that, cells were serum starved in defined media for 24 h. This step was followed by replacement of media with fresh media containing either vehicle (DMSO) or the indicated concentration of agents. After 24 h incubation at 37° C. the media were collected and the amount of PGE2 was determined by ELISA (Cayman Chemical) according to the protocol provided by the manufacturer. PGE2 concentration was normalized to total protein. Total proteins were extracted from adhered cells by 30 min treatment with 0.5 M NaOH at room temperature and shaking. Protein concentrations in these extracts were determined using a protein assay method (Bio-Rad Laboratories, Inc., Hercules, Calif.).

[3] = system: CYP19 mRNA expression in SK-BR-3 cells; assay: CYP19 mRNA expression by real-time RT-PCR in SK-BR-3 cells; type: cell-based, human; details: 25 μM, 24 h (FIG. 5)
Method: (§1) RNA Extraction. Total RNA was isolated using the TRIzol reagent according to the manufacturer's protocol. Total RNA pellets were dissolved in DNase- and RNase-free water and quantitated using a spectrophotometer. The quality of RNA samples was determined by electrophoresis through agarose gels and staining with ethidium bromide; the 18S and 28S rRNA bands were visualized under ultraviolet light.
(§2) cDNA Synthesis. Isolated total RNA (2 μg) was treated with DNase I Amplification grade, according to the recommended protocol to eliminate any DNA before reverse transcription. Treated total RNA was denatured at 65° C. for 5 min in the presence of 2.5 ng/μL random hexamers and 0.5 mM dNTP mix. The samples were snap-cooled on ice and centrifuged briefly. Complementary DNA (cDNA) was synthesized using Superscript II reverse transcriptase according to the recommended protocol. Briefly, the reactions were conducted in the presence of 1× First-Strand Buffer and 20 mM DTT at 42° C. for 50 min and consequently inactivated at 70° C. for 15 min. The cDNA generated was used as a template in realtime PCR reactions.
Real-Time PCR. Real-time PCR was performed using the Opticon 2 system from MJ Research (Waltham, Mass.). For the CYP19 total gene the PCR reaction mixture consisted of Taqman Universal PCR Master Mix (Applied Biosystems), 600 nM of CYP19 primer (sense: 5′-TGTCTCTTTGTTCTTCATGCTATTTCTC-3′ (SEQ ID NO: 1); antisense: 5′-TCACCAATAACAGTCTGGATTTCC-3′) (SEQ ID NO: 2); 250 nM Taqman probe (6FAM 5′-TGCAAAGCACCCTAATGTTGAAGAGGCAAT-3′TAMRA) (SEQ ID NO: 3) (Invitrogen), 18S rRNA (Applied Biosystems, Foster City, Calif.), and 2.0 μL of each RT sample in a final volume of 20 μL. The Taqman probe was designed to anneal to a specific sequence of the aromatase gene between the forward and the reverse primers. Cycling conditions were 50° C. for 2 mm and 95° C. for 10 mm, followed by 50 cycles at 95° C. for 15 s and 60° C. for 1 mm.
as §1, with “extraction.” for “Extraction.”, “DNase,” for “DNase- and”
as §2, with “synthesis.” for “Synthesis.”, “real-time” for “realtime”
Real-time PCR. Real-time PCR was performed using the Opticon™ 2 system from MJ Research (Waltham, Mass.). For the CYP19 total gene the PCR reaction mixture consisted of Taqman® Universal PCR Master Mix (Applied Biosystems), 600 nM of CYP19 primer (sense: 5′-TGTCTCTTTGTTCTTCATGCTATTTCTC-3′ (SEQ ID NO: 1); antisense: 5′-TCACCAATAACAGTCTGGATTTCC-3′) (SEQ ID NO: 2); 250 nM Taqman probe (6FAM 5′-TGCAAAGCACCCTAATGTTGAAGAGGCAAT-3′TAMRA) (SEQ ID NO: 3) (Invitrogen), and 2.0 μL of each cDNA sample in a final volume of 20 μL. […]

[4] = system: aromatase activity in SK-BR-3 breast cancer cells; assay: Aromatase tritiated water-release assay in SK-BR-3 cell lines (first compound set); type: cell-based, human; details: SK-BR-3 cells

| SMILES | IC50 [1] | PGE2 production (COX-2 inhibitory activity) [2] | CYP19 gene expression relative to control [3] | time-course of suppression of aromatase activity ([4]; 2 μM) | melting point | increase of aromatase activity after removing the drug ([1]; letrozole 10 nM, after removal of drug) | time-course of suppression of aromatase activity ([4]; 10 nM) | time-course of suppression of aromatase activity ([4]; 10 μM) |
| --- | --- | --- | --- | --- | --- | --- | --- | --- |
| CS(=O)(=O)Nc1ccc([N+](=O)[O-])cc1OC1CCCCC1 [NS-398, N-(2-Cyclohexyloxy-4-nitrophenyl)methanesulfonamide, reference compound] | 0.68 µM | significantly decrease in PGE2 production | significantly decreased CYP19 gene expression | prolonged reversible suppression of aromatase | – | – | – | – |
| CN(c1ccc([N+](=O)[O-])cc1OC1CCCCC1)S(C)(=O)=O [Compound 17, N-Methyl-N-(2-cyclohexyloxy-4-nitrophenyl)methanesulfonamide] | 0.47 µM | did not show any inhibitory activity | significantly decreased CYP19 gene expression | prolonged reversible suppression of aromatase | 129 to 132 °C | – | – | – |
| N#Cc1ccc(C(c2ccc(C#N)cc2)n2cncn2)cc1 [letrozole, reference compound] | – | – | – | – | – | 150% | acute inhibition | – |
| CCC(CC)Oc1cc([N+](=O)[O-])ccc1N(C)S(C)(=O)=O [Compound 22, N-Methyl-N-(2-(1-ethyl-propyloxy-4-nitrophenyl))methanesulfonamide] | 0.23 µM | did not show any inhibitory activity | significantly decreased CYP19 gene expression | – | 89 to 90 °C | – | – | – |
| CCC(CC)Oc1cc([N+](=O)[O-])ccc1NS(C)(=O)=O [Compound 13, N-(2-(1-Ethyl-propyloxy-4-nitrophenyl))methanesulfonamide] | 0.3 µM | significantly decrease in PGE2 production | significantly decreased CYP19 gene expression | – | 100 to 102 °C | – | – | – |
| C[C@@H]1C[C@@H]([C@H](O)CC2CC(=O)NC(=O)C2)C(=O)[C@@H](C)C1 [Cycloheximide] | – | – | – | – | – | – | – | showed similar results |

— patent publication US7741520B2, “Sulfonanilide analogs as selective aromatase modulators (SAMs)” (The Ohio State University Research Foundation, priority 2006, dated 2010)
